The values below come from US5214048A, “Oxetanocins” (priority 1987, dated 1993).

For data set [1], the system named is cytomegalovirus (A01169 strain). Briefly: Anti-cytomegalovirus activity (plaque formation on human fetal fibroblasts). To be noted: for IC50: Human betaherpesvirus 5, Fibroblast, 240 h, human fetal fibroblasts, 10 days. The class given is cell-based.
Data set [2] concerns B lymphocyte (spleen cells stimulated by LPS). Briefly: Inhibition of B lymphocyte blastgenesis caused by LPS. The class given is cell-based, BALB/C mouse. The following applies: for inhibition at 4 µg/mL / inhibition at 20 µg/mL: Mus musculus, Lymphocyte, read-out: Inhibitory rate (%) on blastgenesis of B lymphocyte caused by LPS; for inhibition at 4 µg/mL: 4.0 μg/ml; for inhibition at 20 µg/mL: 20.0 μg/ml. On the procedure: (§1) In the similar method to Waithe et al. (Waithe et al., Handbook of Experimental Immunology, 26, 1, 1978), compounds OXT-X, 2-amino-OXT-A and OXT-G were examined for the effect on lymphocyte blastgenesis.
Inhibition of B lymphocyte blastgenesis caused by LPS (lipopolysaccharide)
According to the method of Test Example 1 (except that 100 μg/ml of Escherichia coli LPS was added in place of Con A), the intake of ^3 [H]-thymidine into blastgenesis B cells was measured. The inhibitory rate of the test sample was similarly determined.

For data set [3], the system named is HIV (human immunodeficiency virus). Briefly: Anti-HIV activity (development of virus antigen in MT-4 cells). The class given is cell-based. The following applies: DMSO only 80 to 90%. The method, then:
(b) Anti-HIV (human immunodeficiency virus) activity
MT-4 cell (about 100,000 cells/ml) was added into a 24 well tray, and then 100 microliters of a solution containing a predetermined quantity of a compound of this invention was added. After culturing it at 37° C. for 5 hours in 5% (v/v) carbon dioxide incubator, 10^3 to 10^4 infection units of HIV was added and cultured for 4 days. Then, a part of the culture fluid was coated onto a slide glass and immobilized with acetone, after which development of virus antigen was observed by indirect fluorescent antibody method.
As the primary antibody of the fluorescent antibody method, a serum of AIDS patient was used. As its secondary antibody, FITC-labelled […] was used.

Another data set deals with MT-4 cells. Briefly: Cell denaturation of MT-4 cells without virus. The following applies: 100 μg/ml. The class given is cell-based.
In data set [4] the test system is herpes simplex virus type-2 (HSV-2) strain 186. Briefly: Effect of treatment against HSV-2 infection in mice. Format: in vivo, ICR mice. To be noted: 5 days. On the procedure: (a) Effect of treatment with OXTs against HSV-2 infection in mice
The 8-week old male ICR mice were inoculated intraperitoneally (ip) with herpes simplex virus type-2(HSV-2)strain 186 at 2.5×10^5 PFU/0.2 ml/mouse. OXTs were administered ip once a day with the indicated doses for 5 days, starting 6 hours after inoculation. The survival rates (%)of mice treated with OXTs were evaluated at least for 3 weeks after inoculation.

The subject of data set [5] is duck hepatitis B virus (DHBV). Briefly: Efficacy against DHBV-infected duck (dot-blot hybridization of sera). To be noted: 6 days. Format: in vivo. The method, then:
(c) Efficacy of OXT-G and 2-Amino-OXT-A against DHBV-infected Duck Newborn ducklings were intraperitoneally infected with 50 μl of duck hepatitis B virus (DHBV) containing sera. Persistent infection in ducks was confirmed by dot-blot hybridization of sera taken from 6 week old ducks. Ducks were intraperitoneally treated with the indicated doses of OXT-G and 2-Animo-OXT-A once a day for 6 days. After treatment of OXTs sera were collected and examined for the presence of DHBV-DNA by dot-blot hybridization as ^32 p-labeled DHBV DNA probe.

For data set [6], the system named is T lymphocyte (spleen cells stimulated by Con A). Briefly: Inhibition of T lymphocyte blastgenesis caused by Con A. Format: cell-based, BALB/C mouse. To be noted: for inhibition at 0.8 µg/mL / inhibition at 4 µg/mL / inhibition at 20 µg/mL: Mus musculus, T-lymphocyte, read-out: Inhibitory rate (%) on T lymphocyte blastgenesis caused by Con A; for inhibition at 0.8 µg/mL: 0.8 μg/ml; for inhibition at 4 µg/mL: 4.0 μg/ml; for inhibition at 20 µg/mL: 20.0 μg/ml. On the procedure:
as §1
Inhibition of T lymphocyte blastgenesis caused by Con A:
Spleen cells of BALB/C mouse were dividingly poured into microplate at a rate of 2×10^5 cells/0.2 ml/well. Test compounds of varied concentration were added to wells other than control group. Further, Con A was added to all the wells at a rate of 5 micrograms/ml. Then, the cell suspensions were cultured at 37° C. for 72 hours in a culture chamber having an atmosphere of 5% v/v carbon dioxide. The extent of lymphocyte blastgenesis was determined by adding 1 μci/well of ^3 [H]-thymidine 6 hours before completion of culture and measuring the intake into cultured cells by means of a liquid scintillation counter. Numerical value (1-B dpm/A dpm)×100 was taken as inhibitory rate of each sample compound on blastgenesis, wherein A dpm was intake count in the case of adding Con A only and B dpm was intake count in the case of adding Con A and the sample compound.

For data set [7], the system named is murine cytomegalovirus (MCMV) Smith strain. Briefly: Titers of MCMV in various tissues of mice. The following applies: for Virus titer: 6 days after infection. The class given is in vivo, ICR mice.
Data set [8] shares this test system. Briefly: Efficacy against MCMV infection in mice, body weight. To be noted: 10 mg/kg/day. The class given is in vivo, ICR mice. On the procedure: (b) Efficacy of treatment with OXT-G against MCMV infection in mice The 4-week old male ICR mice was inoculated intraperitoneally with Smith strain of murine cytomegalovirus (MCMV) at 1×10^5 PFU/0.2 ml and treated with 10 mg/kg/day of OXT-G once a day for 5 days, starting 6 hours after inoculation. The mortality and changes in body weight were monitored every day.

For orientation: IC50 means the point on the concentration scale where inhibition reaches its midpoint.

Each structure is given as a SMILES string. In brackets after ≈: the same amount, converted by molar mass.

As for `Nc1nc(N)c2ncn([C@@H]3O[C@H](CO)[C@H]3CO)c2n1` [2-Amino-OXT-A], in data set [1], the “anti-cytomegalovirus inhibitory action” value is recorded as “particularly outstanding in the inhibitory action” and the half-inhibitory concentration (IC50) is 2 µg/mL (≈ 7.51 µM). Besides, in [2], the “effect on blastgenesis of B lymphocyte stimulated by LPS” value (“effect on blastgenesis … by LPS” for short) was “markedly suppressed”, the inhibition at 4 µg/mL came out at 23% and the inhibition at 20 µg/mL was determined as 93%. For the same compound, the “Development of virus antigen (%)” value in data set [3] (1 μg/ml) is reported as 30%. The “Development of virus antigen (%)” value in [3] (10 μg/ml) is on record as 26%. For the same compound, in data set [3] (100 μg/ml), the “Development of virus antigen (%)” value is 5%. Moreover, in the data set with MT-4 cells, the Cell denaturation result is on record as “±~+”. In data set [4] (10 mg/kg/day ip), the Survivor/Total was 7/10 and the “survival rate (%)” value was 70%. The “Content (%) of DHBV in sera” value in [5] (20 mg/kg/day ip) is reported as 28%. In [5] (50 mg/kg/day ip), the “Content (%) of DHBV in sera” value stood at 18%. Moreover, the “Content (%) of DHBV in sera” value in data set [5] (100 mg/kg/day ip) was 8%. Further, in data set [6], the “effect on blastgenesis of T lymphocyte stimulated by Con A” value (from here on “effect on blastgenesis … by Con A”) is “markedly suppressed”, the inhibition at 0.8 µg/mL was found to be 21%, the inhibition at 4 µg/mL is 94% and the inhibition at 20 µg/mL is 99%.
Turning to `Nc1ncnc2c1ncn2[C@@H]1O[C@H](CO)[C@H]1CO` [OXT-A, reference compound], half-maximal inhibition in [1] (IC50) required 13 µg/mL (≈ 51.7 µM).
As for `Nc1nc2c(ncn2[C@@H]2O[C@H](CO)[C@H]2CO)c(=O)[nH]1` [OXT-G], the Virus titer in [7] (Kidney), in [7] (Liver), in data set [7] (Lung) and in [7] (Spleen) was < 2 PFU/0.1 g tissue each time. Further, the “quantity of MCMV recovered from the tissues” value in data set [7] (mouse, in vivo) is recorded as “significant reduction in the quantity of MCMV recovered from the tissues”. Besides, in [8], the “body weight of MCMV-infected mice” value is “maintained their body weight on the initial level for several days and gradually gained weight thereafter”. For the same compound, the “Average (5 mice) of body weight” value is given as 18.0 g in data set [8] (day 0), 20.0 g in [8] (day 4), 24.5 g in data set [8] (day 8) and 31.0 g in [8] (day 14). The “anti-cytomegalovirus inhibitory action” value in data set [1] is reported as “particularly outstanding in the inhibitory action”. Further, the IC50 in data set [1] turned out to be 1 µg/mL (≈ 3.74 µM). Moreover, the “effect on blastgenesis … by LPS” value in [2] is listed as “markedly suppressed”. The inhibition at 4 µg/mL in data set [2] was 64%; in [6], 96%. The inhibition at 20 µg/mL was 93% in data set [2] and 100% in data set [6]. For the same compound, the “Development of virus antigen (%)” value in [3] (1 μg/ml) is 42%; in data set [3] (10 μg/ml) it was 17%. Further, the results for the Survivor/Total in [4] (5 mg/kg/day ip), in data set [4] (10 mg/kg/day ip) and in data set [4] (20 mg/kg/day ip) were 3/10, 8/10 and 10/10, respectively. For the same compound, the entries for the “survival rate (%)” value in data set [4] (5 mg/kg/day ip), in data set [4] (10 mg/kg/day ip) and in data set [4] (20 mg/kg/day ip) were 30%, 80% and 100%, respectively. For the same compound, the figures for the “Content (%) of DHBV in sera” value in data set [5] (20 mg/kg/day ip), in data set [5] (50 mg/kg/day ip) and in data set [5] (100 mg/kg/day ip) were 9%, 25% and 3%, respectively. The “effect on blastgenesis … by Con A” value in [6] is reported as “markedly suppressed”. In data set [6], the inhibition at 0.8 µg/mL stood at 85%.
`O=c1[nH]cnc2c1ncn2[C@@H]1O[C@H](CO)[C@H]1CO` [OXT-H, reference compound] returned a concentration for half-maximal inhibition (IC50) in data set [1] of 18 µg/mL (≈ 71.4 µM).
For `O=c1[nH]c(=O)c2ncn([C@@H]3O[C@H](CO)[C@H]3CO)c2[nH]1` [OXT-X], in data set [2], the “effect on blastgenesis … by LPS” value is on record as “markedly suppressed”, the inhibition at 4 µg/mL worked out at 8% and the inhibition at 20 µg/mL was determined as 27%. Also, the “Development of virus antigen (%)” value in data set [3] (1 μg/ml) is recorded as 66%. Further, the “Development of virus antigen (%)” value in [3] (10 μg/ml) is reported as 52%. Further, the “Development of virus antigen (%)” value in data set [3] (100 μg/ml) turned out to be 5%. The Cell denaturation result in the data set on MT-4 cells was “±~+”. In data set [6], the “effect on blastgenesis … by Con A” value was “markedly suppressed”, the inhibition at 0.8 µg/mL is 11%, the inhibition at 4 µg/mL stood at 36% and the inhibition at 20 µg/mL worked out at 71%.
